Series [1] addresses T1, HNE (Homo sapiens, UniProt P08246).
T1 construct: purchased Calbiochem
T1 sequence (P08246 30-267): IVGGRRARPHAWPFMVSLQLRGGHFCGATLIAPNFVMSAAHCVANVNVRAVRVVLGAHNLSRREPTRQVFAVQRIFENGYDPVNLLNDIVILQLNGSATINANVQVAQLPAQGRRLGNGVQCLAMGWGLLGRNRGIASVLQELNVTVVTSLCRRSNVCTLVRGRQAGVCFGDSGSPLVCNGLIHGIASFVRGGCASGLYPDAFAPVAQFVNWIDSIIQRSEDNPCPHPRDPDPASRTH
The series can be described thus: Reversibility of HNE inhibition over extended periods of time. The class given is biochemical. Particulars: 8 µM compound. How it is done:
The inhibition was maximal for up to 60 min with compound 7e and >120 min for the other tested compounds (4a, 4b, and 7a). However, inhibition by the compounds was eventually reversed, and full recovery of HNE activity was observed by 4 h after treatment with 8 µM of the compound (e.g. see Figure 6).
Figure 6. […] HNE was incubated with the indicated compounds (8 µM), and kinetic curves monitoring substrate cleavage catalysed by HNE over time are shown. Representative curves are from two independent experiments.

The target of series [2] is T2, HNE (human neutrophil elastase) (Homo sapiens, UniProt P08246).
T2 construct: purchased Calbiochem
T2 sequence (P08246 30-267): T1 sequence (P08246 30-267)
Put plainly: HNE inhibition assay (fluorogenic substrate cleavage). In kind it is biochemical. The note with it: mean ± SD of three independent experiments; NA: no inhibitory activity at the highest concentration tested (50 µM).
Method: Compounds were dissolved in 100% DMSO at 5 mM stock concentrations. […] The HNE inhibition assay was performed in black flat-bottom 96-well microtiter plates. Briefly, a buffer solution containing 200 mM Tris–HCl, pH 7.5, 0.01% bovine serum albumin, and 0.05% Tween-20 and 20 mU/mL of HNE (Calbiochem) was added to wells containing different concentrations of each compound. The reaction was initiated by addition of 25 µM elastase substrate (N-methylsuccinyl-Ala-Ala-Pro-Val-7-amino-4-methylcoumarin, Calbiochem) in a final reaction volume of 100 µl/well. Kinetic measurements were obtained every 30 s for 10 min at 25 °C using a Fluoroskan Ascent FL fluorescence microplate reader (Thermo Electron, MA) with excitation and emission wavelengths set at 355 and 460 nm, respectively. For all compounds tested, the concentration of inhibitor that caused 50% inhibition of the enzymatic reaction (IC50) was calculated by plotting % inhibition versus logarithm of inhibitor concentration (at least six points). The data are presented as the mean values of at least three independent experiments with relative standard deviations of <15%.

For series [3], the target named is T1, HNE. The series can be described thus: Kinetics of HNE inhibition (double-reciprocal Lineweaver–Burk plots). In kind it is biochemical. The note with it: Lineweaver–Burk plot of fluorogenic substrate hydrolysis. From the text:
To better understand the mechanism of action of these isoxazolone HNE inhibitors, we performed kinetic experiments.
Figure 7. Kinetics of HNE inhibition by compounds 7d and 8d. Representative double reciprocal Lineweaver–Burk plots are shown from three independent experiments.

Series [4] in a line: Analysis of compound stability: spontaneous hydrolysis in aqueous buffer. Particulars: 25 °C, 0.05 M phosphate buffer, pH 7.3; read-out: t1/2 for spontaneous hydrolysis (converted). The class given is physicochemical. How it is done:
Spontaneous hydrolysis of selected derivatives was evaluated at 25 °C in 0.05 M phosphate buffer, pH 7.3. Kinetics of hydrolysis were monitored by measuring changes in the absorbance spectra over time using a SpectraMax Plus microplate spectrophotometer (Molecular Devices, Sunnyvale, CA). Absorbance (At) at the characteristic absorption maxima of each compound was measured at the indicated times until no further absorbance decreases occurred (A∞)[52]. Using these measurements, we created semilogarithmic plots of log(At–A∞) versus time, and k′ values were determined from the slopes of these plots. Half-conversion times were calculated using t1/2 = 0.693/k′, as described previously[36]^,[37].

With `CC(=O)Nc1ccc(-c2c(C)n(C(=O)c3cccc(C)c3)oc2=O)cc1` [Compound 7d, N-(4-(3-methyl-2-(3-methylbenzoyl)-5-oxo-2,5-dihydroisoxazol-4-yl)phenyl)acetamide], the melting point (usually the temperature of the solid-liquid transition) lay within 159 to 160 °C. The “time after which HNE inhibition was reversed” value at HNE [1] is roughly 30 min. Moreover, 50 ± 20 nM corresponded to half-maximal inhibition in series [2] (IC50). The “mechanism of HNE inhibition” value at HNE [3] is “competitive”. The half-life in series [4] was 3.9 h.
Consider `Cc1cccc(C(=O)n2oc(=O)c(-c3ccc(NC(=O)C4CC4)cc3)c2C)c1` [Compound 7e, N-(4-(3-methyl-2-(3-methylbenzoyl)-5-oxo-2,5-dihydroisoxazol-4-yl)phenyl)ciclopropanecarboxamide], for which the melting point was in the range of 120 to 123 °C. The “time for which HNE inhibition was maximal” value on HNE [1] is “up to 60 min”. In addition, in series [2], the IC50 (as a rule, the concentration that inhibits the measured activity by half) came out at 50 ± 20 nM. The half-life in series [4] was 9.6 h.
Consider `CC(=O)Nc1ccc(-c2c(C)noc2OC(=O)c2cccc(C)c2)cc1` [Compound 8d, 4-(4-Acetamidophenyl)-3-methylisoxazol-5-yl3-methylbenzoate], for which the melting point lay within 57 to 60 °C. In addition, the IC50 in series [2] was found to be 540 ± 110 nM. The “mechanism of HNE inhibition” value at HNE [3] is “competitive”. The half-life in series [4] was 2.9 h.
